From ChEMBL document CHEMBL1124790, “Angiotensin converting enzyme inhibitors. 10. Aryl sulfonamide substituted N-[1-carboxy-3-phenylpropyl]-L-alanyl-L-proline derivatives as novel antihypertensives” (J Med Chem, 1990)

Legend:
[1] = biological target: T1, Angiotensin-converting enzyme (Oryctolagus cuniculus) (UniProt P12822); test: Time to inhibit maximum angiotensin I converting enzyme in rabbit lung; assay type: functional, tissue-based
T1 sequence (whole entry): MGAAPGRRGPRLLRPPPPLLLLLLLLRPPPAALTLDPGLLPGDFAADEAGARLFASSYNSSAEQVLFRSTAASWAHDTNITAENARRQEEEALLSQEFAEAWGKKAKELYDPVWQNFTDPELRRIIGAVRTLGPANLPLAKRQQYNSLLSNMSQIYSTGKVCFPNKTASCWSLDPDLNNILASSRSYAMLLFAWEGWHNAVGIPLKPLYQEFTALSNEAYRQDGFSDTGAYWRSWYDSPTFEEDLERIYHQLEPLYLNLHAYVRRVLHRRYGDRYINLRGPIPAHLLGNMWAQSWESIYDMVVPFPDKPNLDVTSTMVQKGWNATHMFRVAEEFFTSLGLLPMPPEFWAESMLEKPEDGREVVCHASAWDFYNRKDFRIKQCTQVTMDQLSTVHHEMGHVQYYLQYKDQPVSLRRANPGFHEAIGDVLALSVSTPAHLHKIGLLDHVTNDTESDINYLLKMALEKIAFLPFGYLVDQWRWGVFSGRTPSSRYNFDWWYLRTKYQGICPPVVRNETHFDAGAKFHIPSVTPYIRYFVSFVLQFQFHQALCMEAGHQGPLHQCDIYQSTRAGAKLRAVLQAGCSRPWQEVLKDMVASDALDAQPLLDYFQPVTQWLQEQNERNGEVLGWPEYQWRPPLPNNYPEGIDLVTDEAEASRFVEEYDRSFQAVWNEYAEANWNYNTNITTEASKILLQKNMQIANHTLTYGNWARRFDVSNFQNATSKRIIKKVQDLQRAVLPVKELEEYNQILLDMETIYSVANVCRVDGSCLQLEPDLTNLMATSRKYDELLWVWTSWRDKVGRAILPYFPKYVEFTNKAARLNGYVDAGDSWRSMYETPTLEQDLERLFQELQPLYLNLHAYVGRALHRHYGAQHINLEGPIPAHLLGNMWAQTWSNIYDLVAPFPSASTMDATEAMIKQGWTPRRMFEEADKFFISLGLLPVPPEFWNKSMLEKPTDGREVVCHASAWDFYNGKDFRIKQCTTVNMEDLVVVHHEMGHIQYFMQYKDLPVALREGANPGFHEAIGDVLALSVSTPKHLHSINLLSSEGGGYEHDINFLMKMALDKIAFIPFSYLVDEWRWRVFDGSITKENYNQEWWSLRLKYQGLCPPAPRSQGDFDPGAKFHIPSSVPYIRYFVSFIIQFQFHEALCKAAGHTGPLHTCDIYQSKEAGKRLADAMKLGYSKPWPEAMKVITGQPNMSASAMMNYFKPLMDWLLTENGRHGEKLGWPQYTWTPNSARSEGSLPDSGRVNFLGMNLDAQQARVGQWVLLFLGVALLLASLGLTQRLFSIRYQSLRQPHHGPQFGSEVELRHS

[2] = biological target: T1, Angiotensin-converting enzyme (Oryctolagus cuniculus); test: Time during which angiotensin I converting enzyme inhibition is greater than or equa to 30% in rabbit lung; assay type: functional, tissue-based
[3] = biological target: T2, Angiotensin-converting enzyme (Oryctolagus cuniculus, UniProt P12822); test: In vitro inhibition of angiotensin I converting enzyme (ACE) in rabbit lung; assay type: tissue-based
T2 sequence (P12822 whole entry): T1 sequence (whole entry)

[4] = biological target: T1, Angiotensin-converting enzyme (Oryctolagus cuniculus); test: In vivo inhibition of angiotensin I converting enzyme (ACE) in rabbit lung after (iv) administration of a dose of 10(mg/kg); assay type: organism-based
Rattus norvegicus [5] = test: Percent change in K+ in fasted rats at the dose of 100 mg/kg (iv), 0-5 h; assay type: functional
Rattus norvegicus [6] = test: Percent change in K+ in fasted rats at the dose of 100 mg/kg (iv), 5-24 h; assay type: functional
Rattus norvegicus [7] = test: Percent change in Na+ in fasted rats at the dose of 100 mg/kg (iv), 0-5 h; assay type: functional
Rattus norvegicus [8] = test: Percent change in Na+in fasted rats at the dose of 100 mg/kg (iv), 5-24 h; assay type: functional
Rattus norvegicus [9] = test: Percent change in urinary volume in fasted rats at the dose of 100 mg/kg (iv), 0-5 h; assay type: functional, Urine
Rattus norvegicus [10] = test: Percent change in urinary volume in fasted rats at the dose of 100 mg/kg (iv), 5-24 h; assay type: functional, Urine

## C[C@H](N[C@@H](CCc1ccccc1)C(=O)O)C(=O)N1C[C@@H](NS(=O)(=O)c2cc(S(N)(=O)=O)c(N)cc2Cl)C[C@H]1C(=O)O
[1]
  Time to max. inhibition: 0.3 h
[2]
  Duration: 3.7 h
[3]
  IC50: 6.5 nM
[4]
  inhibition: 76%
Rattus norvegicus [5]
  Change: 0%
Rattus norvegicus [6]
  Change: 0%
Rattus norvegicus [7]
  Change: -57%
Rattus norvegicus [8]
  Change: 38%
Rattus norvegicus [9]
  Change: -49%
Rattus norvegicus [10]
  Change: 60%
